# Like-named read-outs stand apart in the source and are kept apart here.
# Assay: Pharmacokinetics of Compound 1 delivered via solid chow (plasma, LC-MS/MS)
# Type: in vivo, C57BL/6J mice
# Conditions: for Tmax / Tmin / Cmin / AUC / Cmax: C57BL/6J mice; for AUC / Cmax: C57BL/6J, mouse, plasma, po; for AUC: read-out: AUC9-10
# Procedure: The pharmacokinetics of Compound 1 at three doses (0.1%, 0.3% or 1% (w/w)) when delivered via solid chow was determined in satellite wild type C57BL/6J mice. The first day Compound 1 was provided was defined as Day 0. On Day 3 and on Day 13 blood was obtained from mice at specified time points and the plasma concentration of Compound 1 was measured using liquid chromatography-tandem mass spectrometry.
# AUC9-10 refers to area under the curve plotting plasma concentration over time (9 am to 10 pm) (hr·μg/mL); Cmax refers to maximal plasma concentration (μg/mL); Cmin refers to minimal plasma concentration (μg/mL); Tmax refers to the time at which the maximal plasma concentration was measured; and Tmin refers to the time at which the minimal plasma concentration was measured.
# [1] = 0.1% (w/w) in chow, Day 3, clock time
# [2] = 0.1% (w/w) in chow, Day 13, clock time
# [3] = 0.3% (w/w) in chow, Day 3, clock time
# [4] = 0.3% (w/w) in chow, Day 13, clock time
# [5] = 1.0% (w/w) in chow, Day 3, clock time
# [6] = 1.0% (w/w) in chow, Day 13, clock time
smiles,measurement,setting,value
"O=C(O)c1cccc(-c2noc(-c3ccccc3F)n2)c1 [Compound 1, 3-[5-(2-fluoro-phenyl)-[1,2,4]oxadiazol-3-yl]-benzoic acid]",Tmax,[1],10 pm
same,Tmin,[1],1 pm
same,Cmin,"0.1% (w/w) in chow, Day 3, plasma",760 ng/mL
same,Tmax,[2],10 pm
same,Tmin,[2],1 pm
same,Cmin,"0.1% (w/w) in chow, Day 13, plasma",1000 ng/mL
same,Tmax,[3],10 pm
same,Tmin,[3],1 pm
same,Cmin,"0.3% (w/w) in chow, Day 3, plasma",3700 ng/mL
same,Tmax,[4],10 pm
same,Tmin,[4],9 am
same,Cmin,"0.3% (w/w) in chow, Day 13, plasma",4600 ng/mL
same,Tmax,[5],4 pm
same,Tmin,[5],1 pm
same,Cmin,"1.0% (w/w) in chow, Day 3, plasma",21000 ng/mL
same,Tmax,[6],4 pm
same,Tmin,[6],9 am
same,Cmin,"1.0% (w/w) in chow, Day 13, plasma",19000 ng/mL
same,AUC,"0.1 % (w/w) in chow, 0.1% (w/w) in chow, Day 3, 9 am to 10 pm",35000 ng·h/mL
same,Cmax,"0.1 % (w/w) in chow, 0.1% (w/w) in chow, Day 3, plasma",5200 ng/mL
same,AUC,"0.1 % (w/w) in chow, 0.1% (w/w) in chow, Day 13, 9 am to 10 pm",28000 ng·h/mL
same,Cmax,"0.1 % (w/w) in chow, 0.1% (w/w) in chow, Day 13, plasma",3600 ng/mL
same,AUC,"0.3 % (w/w) in chow, 0.3% (w/w) in chow, Day 3, 9 am to 10 pm",109000 ng·h/mL
same,Cmax,"0.3 % (w/w) in chow, 0.3% (w/w) in chow, Day 3, plasma",19000 ng/mL
same,AUC,"0.3 % (w/w) in chow, 0.3% (w/w) in chow, Day 13, 9 am to 10 pm",89000 ng·h/mL
same,Cmax,"0.3 % (w/w) in chow, 0.3% (w/w) in chow, Day 13, plasma",13000 ng/mL
same,AUC,"1 % (w/w) in chow, 1.0% (w/w) in chow, Day 3, 9 am to 10 pm",420000 ng·h/mL
same,Cmax,"1 % (w/w) in chow, 1.0% (w/w) in chow, Day 3, plasma",41000 ng/mL
same,AUC,"1 % (w/w) in chow, 1.0% (w/w) in chow, Day 13, 9 am to 10 pm",594000 ng·h/mL
same,Cmax,"1 % (w/w) in chow, 1.0% (w/w) in chow, Day 13, plasma",58000 ng/mL
same,Plasma concentrations (range over time points),"mice, 1.0% (w/w) in chow",19000 to 58000 ng/mL
